Measurements from PubChem BioAssay (NCI).
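GI50 is the concentration that inhibits growth by half. TGI denotes the concentration required for complete inhibition of growth.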

Tests used:
Assay in all cases: NCI-60 cell line screen, 384-well format
HCC-2998 colon = tested on: HCC-2998 colon
SW-620 colon = tested on: SW-620 colon
MDA-MB-231 breast = tested on: MDA-MB-231 breast
NCI-H226 lung = tested on: NCI-H226 lung
MALME-3M melanoma = tested on: MALME-3M melanoma
CAKI-1 renal = tested on: CAKI-1 renal
UACC-62 melanoma = tested on: UACC-62 melanoma
HCT-15 colon = tested on: HCT-15 colon
CCRF-CEM leukemia = tested on: CCRF-CEM leukemia
COLO 205 colon = tested on: COLO 205 colon
786-0 renal = tested on: 786-0 renal
RXF 393 renal = tested on: RXF 393 renal
NCI-H322M lung = tested on: NCI-H322M lung
MDA-MB-435 melanoma = tested on: MDA-MB-435 melanoma
NCI/ADR-RES ovarian = tested on: NCI/ADR-RES ovarian
PC-3 prostate = tested on: PC-3 prostate
KM12 colon = tested on: KM12 colon
HL-60(TB) leukemia = tested on: HL-60(TB) leukemia
OVCAR-4 ovarian = tested on: OVCAR-4 ovarian
SN12C renal = tested on: SN12C renal
LOX IMVI melanoma = tested on: LOX IMVI melanoma
TK-10 renal = tested on: TK-10 renal
HCT-116 colon = tested on: HCT-116 colon
NCI-H460 NSCLC = tested on: NCI-H460 NSCLC

`COCCOc1cc(F)c2c(Nc3ccc(NC(=O)Cn4cc(C(C)C)nn4)cc3)ncnc2c1` was tested, and the TGI (HCC-2998 colon) was > 100 µM, the GI50 (SW-620 colon) was 52 µM and the TGI (SW-620 colon) was > 100 µM. For the same compound, the GI50 (MDA-MB-231 breast) was 30.5 µM, the TGI (MDA-MB-231 breast) was > 100 µM and the GI50 (NCI-H226 lung) was 7.16 µM. The TGI (NCI-H226 lung) was > 100 µM, the GI50 (MALME-3M melanoma) was 25 µM and the TGI (MALME-3M melanoma) was > 100 µM. The GI50 (CAKI-1 renal) was 38.4 µM, the TGI (CAKI-1 renal) was > 100 µM and the GI50 (UACC-62 melanoma) was 31.1 µM. The TGI (UACC-62 melanoma) was > 100 µM, the GI50 (HCT-15 colon) was 24.9 µM and the TGI (HCT-15 colon) was > 100 µM. The GI50 (CCRF-CEM leukemia) was 7.64 µM, the TGI (CCRF-CEM leukemia) was 37.9 µM and the GI50 (COLO 205 colon) was 40.8 µM. For the same compound, the TGI (COLO 205 colon) was > 100 µM, the GI50 (786-0 renal) was 49.7 µM and the TGI (786-0 renal) was > 100 µM. For the same compound, the GI50 (RXF 393 renal) was 39.8 µM, the TGI (RXF 393 renal) was > 100 µM and the GI50 (NCI-H322M lung) was > 100 µM. The TGI (NCI-H322M lung) was > 100 µM, the GI50 (MDA-MB-435 melanoma) was 62.1 µM and the TGI (MDA-MB-435 melanoma) was > 100 µM. The GI50 (NCI/ADR-RES ovarian) was > 100 µM, the TGI (NCI/ADR-RES ovarian) was > 100 µM and the GI50 (PC-3 prostate) was 62.9 µM. The TGI (PC-3 prostate) was > 100 µM, the GI50 (KM12 colon) was 0.56 µM and the TGI (KM12 colon) was > 100 µM. For the same compound, the GI50 (HL-60(TB) leukemia) was 17.3 µM, the TGI (HL-60(TB) leukemia) was 37.9 µM and the GI50 (OVCAR-4 ovarian) was > 100 µM. The TGI (OVCAR-4 ovarian) was > 100 µM, the GI50 (SN12C renal) was 12.9 µM and the TGI (SN12C renal) was > 100 µM. The GI50 (LOX IMVI melanoma) was 43.6 µM, the TGI (LOX IMVI melanoma) was > 100 µM and the GI50 (TK-10 renal) was 29.8 µM. The TGI (TK-10 renal) was > 100 µM, the GI50 (HCT-116 colon) was 48.7 µM and the TGI (HCT-116 colon) was > 100 µM. For the same compound, the GI50 (NCI-H460 NSCLC) was 31.7 µM and the TGI (NCI-H460 NSCLC) was > 100 µM.
